# Laboratory results taken from patent US9115093B2, “Substituted bicyclic dihydropyrimidinones and their use as inhibitors of neutrophil elastase activity” (Boehringer Ingelheim International GmbH, priority 2013, dated 2015).
# Target: T1, neutrophil elastase (Homo sapiens, UniProt P08246)
# T1 sequence (P08246 30-247 limits assumed): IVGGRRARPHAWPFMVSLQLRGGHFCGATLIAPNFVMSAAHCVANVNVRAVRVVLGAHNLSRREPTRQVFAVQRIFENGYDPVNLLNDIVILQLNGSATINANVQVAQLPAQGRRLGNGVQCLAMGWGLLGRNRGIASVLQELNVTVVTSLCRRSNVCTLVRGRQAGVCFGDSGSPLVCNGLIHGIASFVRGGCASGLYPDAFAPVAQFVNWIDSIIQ
# Test: Neutrophil elastase inhibitory activity in human plasma
# Type: biochemical
# Parameters: The stimulated blood is centrifuged to generate the neutrophil elastase enriched plasma; from tissue; host or cells: plasma from zymosan-stimulated citrated whole blood of healthy human donors
# Details: neutrophil elastase enriched human plasma (zymosan-stimulated blood), substrate MeOSuc-Ala-Ala-Pro-Val-AMC
# Description: Assay for the Determination of Neutrophil Elastase Inhibitory Activity in Human Plasma
# Citrated blood from human healthy donors is mixed with zymosan suspension and incubated at room temperature. This leads to the stimulation of neutrophils and the release of neutrophil elastase into the plasma. The stimulated blood is centrifuged to generate the neutrophil elastase enriched plasma.
# Preparation of Zymosan Working Solution:
# • single 45 ml blood sample is taken into a 50 ml tube containing citrate (3.13%, 5 mL) and the tube is gently inverted 4 times. • Immediately after blood sampling, zymosan working solution (5 mL) is added. • After the addition of zymosan working solution, the tubes are capped, mixed gently and incubated at 22° C. for 15 min on a shaker at 20 rpm. • Make 10 ml aliquots after the incubation time. • Centrifuge the 15 ml tubes at 800 g for […] at 4° C. in a Jouan centrifuge. • Harvest the plasma and make 1-5 ml aliquots. • Store the plasma at −80° C.
# Various concentrations of the neutrophil elastase inhibitor are incubated with plasma. Subsequently, the enzyme activity is measured using the fluorogenic substrate MeOSuc-Ala-Ala-Pro-Val-AMC (Bachem Cat. No. 1-1270, substrate concentration: 250 μM, pH 7.5, 25 mM TRIS buffer, 250 mM NaCl) in analogous fashion as described for the human neutrophil assay. A dose response curve is generated to calculate the EC50 of the inhibitor. The analysis of the data is performed by the calculation of the percentage of fluorescence in the presence of the test compound compared to the fluorescence of the vehicle control after subtracting the background fluorescence: An inhibitor of the neutrophil elastase enzyme will give values between 100% control (no inhibition) and 0% control (complete inhibition). The human plasma shift of selected compounds can be calculated using the following equation: Human plasma shift=(EC50 in human plasma assay)/(IC50 in human neutrophil elastase assay) The EC50 values of selected compounds in the human plasma assay described above are listed in Table 14.
row,Structure (SMILES),EC50 [nM]
1,"CN1C(=O)N(c2ccnc(C(F)(F)F)c2)C2=C(C(=O)CCC2)C1c1ccc(C#N)cc1S(C)(=O)=O (stereo not shown) [Example 64, 4-(3-Methyl-2,5-dioxo-1-(2-(trifluoromethyl)pyridin-4-yl)-1,2,3,4,5,6,7,8-octahydroquinazolin-4-yl)-3-(methylsulfonyl)benzonitrile]",1
2,"CN1C(=O)N(c2cccc(C(F)(F)F)c2)C2=C(C(=O)CCC2)[C@H]1c1ccc(C#N)cc1S(C)(=O)=O [Example 48, (S)-4-(3-Methyl-2,5-dioxo-1-(3-(trifluoromethyl)phenyl)-1,2,3,4,5,6,7,8-octahydroquinazolin-4-yl)-3-(methylsulfonyl)benzonitrile]",1
3,"CS(=O)(=O)c1cc(C#N)ccc1[C@@H]1C2=C(CCCC2=O)N(c2cccc(C(F)(F)F)c2)C(=O)N1C(N)=O [Example 75, (S)-4-(4-Cyano-2-(methylsulfonyl)phenyl)-2,5-dioxo-1-(3-(trifluoromethyl)phenyl)-1,2,5,6,7,8-hexahydroquinazoline-3(4H)-carboxamide]",< 1

# Tested on: not listed separately
# Test: Metabolic stability with human hepatocytes
# Type: in vitro ADME
# Details: human hepatocyte suspension, 1 μM, scaled with well stirred model
# Description: Assay for the Determination of Metabolic Stability with Human Hepatocytes
# The metabolic degradation of the test compound is assayed in a human hepatocyte suspension. Human hepatocytes (typically cryopreserved) are incubated in an appropriate buffer system (e.g. Dulbecco's modified eagle medium plus 3.5 μg glucagon/500 mL, 2.5 mg insulin/500 mL and 3.75 mg/500 mL hydrocortison) containing 5% species serum. Following a (typically) […] preincubation in an incubator (37° C., 10% CO2), 5 μl of test compound solution (80 μM; from 2 mM stock solution in DMSO diluted 1:25 with medium) are added into 395 μl hepatocyte suspension (cell density in the range 0.25-5*10^6 cells/mL, typically 1*10^6 cells/mL; final concentration of test compound 1 μM, final DMSO concentration […]). The cells are incubated for six hours (incubator, orbital shaker) and samples (25 μl) are taken at 0, 0.5, 1, 2, 4 and 6 hours. Samples are transferred into acetonitrile and pelleted by centrifugation (5 min). The supernatant is transferred to a new 96-deepwell plate, evaporated under nitrogen and resuspended. The decline of parent compound is analyzed by LC-MS/MS.
# The intrinsic clearance CL_[…] is calculated as follows: CL_[…]=Dose/AUC=(C0/CD)/(AUD+clast/k)*1′000/60 (C0: initial concentration in the incubation [μM], CD: cell density of vital cells [10^6 cells/mL], AUD: area under the data [μM*h], clast: concentration of last data point [μM], k: slope of the regression line for parent decline [h^−1])
# The calculated in vitro hepatic intrinsic clearance can be scaled up to the intrinsic in vivo hepatic clearance and used to predict hepatic in vivo blood clearance (CL) by the use of a is liver model (well stirred model): CL_[…]_INVIVO [ml/min/kg]=(CL_[…] [μL/min/10^6 cells]* hepatocellularity[10^6 cells/g liver]*liver factor[g/kg bodyweight])/1′000 CL[ml/min/kg]=CL_[…]_INVIVO [ml/min/kg]*hepatic blood flow [ml/min/kg]/(CL_[…]_INVIVO [ml/min/kg]+hepatic blood flow [ml/min/kg]) Qh[%]=CL[ml/min/kg]/hepatic blood flow[ml/min/kg]) (Hepatocellularity, human: 120*10^6 cells/g liver; lver factor, human: 25.7 g/kg bodyweight; blood flow, human: 21 ml/(min*kg))
# The predicted human hepatic in vivo blood clearance (CL) of selected compounds in the metabolic stability assay described above are listed in Table 16.
row,Structure (SMILES),CL (predicted human hepatic in vivo blood clearance) [mL/min/kg]
1,"CCS(=O)(=O)c1cc(C#N)ccc1[C@H]1NC(=O)N(c2cccc(C(F)(F)F)c2)C2=C1C(=O)CCC2 (single isomer, unassigned) [Example 54A]",2
2,"CN1C(=O)N(c2ccnc(C(F)(F)F)c2)C2=C(C(=O)CCC2)C1c1ccc(C#N)cc1S(C)(=O)=O (stereo not shown) [Example 64, 4-(3-Methyl-2,5-dioxo-1-(2-(trifluoromethyl)pyridin-4-yl)-1,2,3,4,5,6,7,8-octahydroquinazolin-4-yl)-3-(methylsulfonyl)benzonitrile]",0
3,"CS(=O)(=O)c1cc(C#N)ccc1[C@H]1NC(=O)N(c2cccc(C(F)F)c2)C2=C1C(=O)CCC2 (single isomer, unassigned) [Example 19A]",0
4,"CNC(=O)N1C(=O)N(c2cccc(C(F)(F)F)c2)C2=C(C(=O)CCC2)[C@H]1c1ccc(C#N)cc1S(C)(=O)=O (single isomer, unassigned) [Example 47A]",0
5,"CN1C(=O)N(c2cccc(C(F)(F)F)c2)C2=C(C(=O)CCC2)[C@H]1c1ccc(C#N)cc1S(C)(=O)=O [Example 48, (S)-4-(3-Methyl-2,5-dioxo-1-(3-(trifluoromethyl)phenyl)-1,2,3,4,5,6,7,8-octahydroquinazolin-4-yl)-3-(methylsulfonyl)benzonitrile]",3
6,"CS(=O)(=O)c1cc(C#N)ccc1[C@H]1NC(=O)N(c2cccc(C(F)(F)F)c2)C2=C1C(=O)CCC2 (single isomer, unassigned) [Example 18A]",0

# Target: T1, neutrophil elastase
# Test: Human Neutrophil Elastase Assay
# Type: biochemical
# Parameters: purchased Calbiochem 324681
# Details: substrate MeOSuc-Ala-Ala-Pro-Val-AMC, pH 7.5, room temperature
# Outline: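 Readout: AMC fluorescence (ex 380, em 460 nm) after 60 min room-temperature reaction with 250 nM MeOSuc-AAPV-AMC, following 15 min compound–enzyme preincubation. Buffer: Tris/NaCl pH 7.5, 0.01% BSA.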
row,Structure (SMILES),IC50 [nM]
1,"CN1C(=O)N(c2ccnc(C(F)(F)F)c2)C2=C(C(=O)CCC2)C1c1ccc(C#N)cc1S(C)(=O)=O (stereo not shown) [Example 64, 4-(3-Methyl-2,5-dioxo-1-(2-(trifluoromethyl)pyridin-4-yl)-1,2,3,4,5,6,7,8-octahydroquinazolin-4-yl)-3-(methylsulfonyl)benzonitrile]",3.6
2,"CN1C(=O)N(c2cccc(C(F)(F)F)c2)C2=C(C(=O)CCC2)[C@H]1c1ccc(C#N)cc1S(C)(=O)=O [Example 48, (S)-4-(3-Methyl-2,5-dioxo-1-(3-(trifluoromethyl)phenyl)-1,2,3,4,5,6,7,8-octahydroquinazolin-4-yl)-3-(methylsulfonyl)benzonitrile]",1
3,"CS(=O)(=O)c1cc(C#N)ccc1[C@@H]1C2=C(CCCC2=O)N(c2cccc(C(F)(F)F)c2)C(=O)N1C(N)=O [Example 75, (S)-4-(4-Cyano-2-(methylsulfonyl)phenyl)-2,5-dioxo-1-(3-(trifluoromethyl)phenyl)-1,2,5,6,7,8-hexahydroquinazoline-3(4H)-carboxamide]",< 1
4,Cn1ccc(CNC(=O)CN2C(=O)N(c3cccc(C(F)(F)F)c3)C3=C(C(=O)CCC3)C2c2ccc(C#N)cc2)n1 (stereo not shown) [Example 36.33],17.1
5,"COC(=O)C1CC(=O)C2=C(C1)N(c1cccc(C(F)(F)F)c1)C(=O)NC2c1ccc(C#N)cc1 (stereo not shown) [Example 11, Methyl 4-(4-Cyanophenyl)-2,5-dioxo-1-(3-(trifluoromethyl)phenyl)-1,2,3,4,5,6,7,8-octahydroquinazoline-7-carboxylate]",39.4
6,CN(C(=O)N1C(=O)N(c2cccc(C(F)(F)F)c2)C2=C(C(=O)CCC2)C1c1ccc(C#N)cc1)c1cnn(C)c1 (stereo not shown) [Example 39.14],15
7,"COCCOC(=O)N1C(=O)N(c2cccc(C(F)(F)F)c2)C2=C(C(=O)CCC2)C1c1ccc(C#N)cc1 (stereo not shown) [Example 41, 2-Methoxyethyl 4-(4-Cyanophenyl)-2,5-dioxo-1-(3-(trifluoromethyl)phenyl)-1,2,5,6,7,8-hexahydroquinazoline-3(4H)-carboxylate]",9.1
8,CN(C)CCNC(=O)CN1C(=O)N(c2cccc(C(F)(F)F)c2)C2=C(C(=O)CCC2)C1c1ccc(C#N)cc1 (stereo not shown) [Example 36.10],20
9,CS(=O)(=O)c1cc(C#N)ccc1C1C2=C(CCCC2=O)N(c2cccc(C(F)(F)F)c2)C(=O)N1C(=O)NCCCO (stereo not shown) [Example 47.3],< 1
10,N#Cc1ccc(C2C3=C(CCCC3=O)N(c3cccc(C(F)(F)F)c3)C(=O)N2C(=O)NCC(F)F)cc1 (stereo not shown) [Example 70.6],< 1
11,N#Cc1ccc(C2C3=C(CCCC3=O)N(c3cccc(C(F)(F)F)c3)C(=O)N2C(=O)NC2CS(=O)(=O)C2)cc1 (stereo not shown) [Example 70.18],< 1
12,N#Cc1ccc(C2C3=C(CCCC3=O)N(c3cccc(C(F)(F)F)c3)C(=O)N2C(=O)NC2CCS(=O)(=O)C2)cc1 (stereo not shown) [Example 70.19],< 1
13,CC(C)NC(=O)N1C(=O)N(c2ccnc(C(F)(F)F)c2)C2=C(C(=O)CCC2)C1c1ccc(C#N)cc1 (stereo not shown) [Example 76.3],1.9
14,CN1CCC(NC(=O)N2C(=O)N(c3cccc(C(F)(F)F)c3)C3=C(C(=O)CCC3)C2c2ccc(C#N)cc2)C1=O (stereo not shown) [Example 39.15],< 1
15,N#Cc1ccc(C2C3=C(CCCC3=O)N(c3cccc(C(F)(F)F)c3)C(=O)N2CC(=O)NC2CC2)cc1 (stereo not shown) [Example 36.2],13.1
16,CC(C#N)NC(=O)N1C(=O)N(c2cccc(C(F)(F)F)c2)C2=C(C(=O)CCC2)[C@H]1c1ccc(C#N)cc1S(C)(=O)=O (stereo partly shown) [Example 75.4],< 1
17,"CC(C(=O)NCCO)N1C(=O)N(c2cccc(C(F)(F)F)c2)C2=C(C(=O)CCC2)C1c1ccc(C#N)cc1 (stereo not shown) [Example 61, 2-(4-(4-Cyanophenyl)-2,5-dioxo-1-(3-(trifluoromethyl)phenyl)-1,2,5,6,7,8-hexahydroquinazolin-3(4H)-yl)-N-(2-hydroxyethyl)propanamide]",6.6
18,"N#Cc1ccc(C2C3=C(CCCC3=O)N(c3cccc(C(F)(F)F)c3)C(=O)N2S(=O)(=O)CCCC(=O)O)cc1 (stereo not shown) [Example 45, 4-(4-(4-Cyanophenyl)-2,5-dioxo-1-(3-(trifluoromethyl)phenyl)-1,2,5,6,7,8-hexahydroquinazolin-3(4H)-ylsulfonyl)butanoic acid]",3.4
19,N#Cc1ccc(C2C3=C(CCCC3=O)N(c3cccc(C(F)(F)F)c3)C(=O)N2C(=O)N2CC(O)C2)cc1 (stereo not shown) [Example 39.4],13.4
20,"CN(C)C(=O)CN1C(=O)N(c2cccc(C(F)(F)F)c2)C2=C(C(=O)CCC2)C1c1ccc(C#N)cc1 (stereo not shown) [Example 34, 2-(4-(4-Cyanophenyl)-2,5-dioxo-1-(3-(trifluoromethyl)phenyl)-1,2,5,6,7,8-hexahydroquinazolin-3(4H)-yl)-N,N-dimethylacetamide]",3.1
21,N#Cc1ccc(C2C3=C(CCCC3=O)N(c3cccc(C(F)(F)F)c3)C(=O)N2CC(=O)NCCN2CCOCC2)cc1 (stereo not shown) [Example 36.63],13.9
22,"CC1(C)CCC2=C(C1=O)C(c1ccc(C#N)cc1)NC(=O)N2c1cccc(C(F)(F)F)c1 (stereo not shown) [Example 2, 4-(6,6-Dimethyl-2,5-dioxo-1-(3-(trifluoromethyl)phenyl)-1,2,3,4,5,6,7,8-octahydroquinazolin-4-yl)benzonitrile]",44.9
